What was measured:
Format in all cases: functional
Streptococcus pneumoniae [1] = assay: Antimicrobial activity against Streptococcus pneumoniae 02J1175
Enterococcus faecalis [2] = assay: Antimicrobial activity against vancomycin-resistant Enterococcus faecalis 03B1069
Enterococcus faecium [3] = assay: Antimicrobial activity against Enterococcus faecium A5960
Staphylococcus aureus [4] = assay: Antimicrobial activity against Staphylococcus aureus A8831 harboring U2500A mutation in 23S rRNA
Enterococcus faecium [5] = assay: Antimicrobial activity against Enterococcus faecium A5959
Chlamydia pneumoniae = assay: Antimicrobial activity against Chlamydophila pneumoniae isolated from human respiratory tract by broth microdilution method
Staphylococcus aureus [6] = assay: Antimicrobial activity against Staphylococcus aureus pLXM1 harboring cfr gene
Enterococcus faecium [7] = assay: Antimicrobial activity against Enterococcus faecium A9650
Enterococcus faecalis [8] = assay: Antimicrobial activity against Enterococcus faecalis A5962
Staphylococcus aureus [9] = assay: Antimicrobial activity against Staphylococcus aureus A8833 harboring U2500A mutation in 23S rRNA
Enterococcus faecalis [10] = assay: Antimicrobial activity against Enterococcus faecalis ATCC 29212-P5 harboring G2576U mutation in 23S rRNA
Enterococcus faecium [11] = assay: Antimicrobial activity against Enterococcus faecium A6348 harboring G2576U mutation in 23S rRNA
Enterococcus faecalis [12] = assay: Antimicrobial activity against Enterococcus faecalis A7789
Legionella pneumophila = assay: Antimicrobial activity against Legionella pneumophila isolated from human respiratory tract by broth microdilution method
Haemophilus influenzae [13] = assay: Antimicrobial activity against Haemophilus influenzae A1950
Streptococcus pneumoniae [14] = assay: Antimicrobial activity against Streptococcus pneumoniae ribosomal mutant
Staphylococcus aureus [15] = assay: Antimicrobial activity against Staphylococcus aureus A7820
Staphylococcus aureus [16] = assay: Antimicrobial activity against Staphylococcus aureus A8761
Streptococcus pneumoniae [17] = assay: Antimicrobial activity against Streptococcus pneumoniae nosocomial isolate
Staphylococcus aureus [18] = assay: Antimicrobial activity against methicillin-resistant Staphylococcus aureus BK 11118
Staphylococcus capitis = assay: Antimicrobial activity against Staphylococcus capitis A8935
Enterococcus faecalis [19] = assay: Antimicrobial activity against Enterococcus faecalis A6350
Enterococcus faecium [20] = assay: Antimicrobial activity against Enterococcus faecium A6349 harboring G2576U mutation in 23S rRNA
Staphylococcus aureus [21] = assay: Antimicrobial activity against Staphylococcus aureus ATCC 29213
Streptococcus pneumoniae [22] = assay: Antimicrobial activity against Streptococcus pneumoniae PU1071099 harboring 65WR66 deletion in ribosomal protein L4 by broth microdilution method
Streptococcus pneumoniae [23] = assay: Antimicrobial activity against Streptococcus pneumoniae 02J1258
Enterococcus faecium [24] = assay: Antimicrobial activity against Enterococcus faecium A9621 by broth microdilution method
Streptococcus pneumoniae [25] = assay: Antimicrobial activity against Streptococcus pneumoniae harboring erm(B) gene by broth microdilution method; settings: Streptococcus pneumoniae; read-out: MIC
Moraxella catarrhalis = assay: Antimicrobial activity against Moraxella catarrhalis
Staphylococcus aureus [26] = assay: Antimicrobial activity against Staphylococcus aureus A8727
Staphylococcus aureus [27] = assay: Antimicrobial activity against Staphylococcus aureus A7817
Enterococcus faecium [28] = assay: Antimicrobial activity against Enterococcus faecium A6349
Staphylococcus aureus [29] = assay: Antimicrobial activity against Staphylococcus aureus A7819 harboring G2576U mutation in 23S rRNA
Enterococcus faecium [30] = assay: Antimicrobial activity against Enterococcus faecium A8767
Enterococcus faecalis [31] = assay: Antimicrobial activity against Enterococcus faecalis ATCC 29212
[32] = system: Staphylococcus epidermidis; assay: Antimicrobial activity against Staphylococcus epidermidis A8934
Streptococcus pneumoniae [33] = assay: Antimicrobial activity against Streptococcus pneumoniae harboring erm(B) and mef(A) gene
Enterococcus faecalis [34] = assay: Antimicrobial activity against Enterococcus faecalis A6343
Staphylococcus aureus [35] = assay: Antimicrobial activity against methicillin resistant Staphylococcus aureus 67-0
Enterococcus faecium [36] = assay: Antimicrobial activity against Enterococcus faecium A6345
Enterococcus faecium [37] = assay: Antimicrobial activity against Enterococcus faecium A8130
Streptococcus pneumoniae [38] = assay: Antimicrobial activity against Streptococcus pneumoniae harboring mef(A) gene
Chlamydia trachomatis = assay: Antimicrobial activity against Chlamydia trachomatis isolated from human respiratory tract by broth microdilution method
Staphylococcus aureus [39] = assay: Antimicrobial activity against methicillin-resistant Staphylococcus aureus BK 11512
Enterococcus faecium [40] = assay: Antimicrobial activity against Enterococcus faecium A8948
Staphylococcus aureus [41] = assay: Antimicrobial activity against Staphylococcus aureus pL150
Enterococcus faecium [42] = assay: Antimicrobial activity against vancomycin-susceptible Enterococcus faecium nosocomial isolate by broth microdilution method
Haemophilus influenzae [43] = assay: Antimicrobial activity against Haemophilus influenzae 54A1100
Staphylococcus hominis = assay: Antimicrobial activity against Staphylococcus hominis A7828
Haemophilus influenzae [44] = assay: Antimicrobial activity against Haemophilus influenzae
[45] = Streptococcus pneumoniae, read-out: MIC

Measured: MIC

CC(=O)NC[C@H]1CN(c2ccc(-c3ccc(CNCc4cnn[nH]4)cc3)c(F)c2)C(=O)O1 [RADEZOLID]
64 µg/mL: Staphylococcus aureus [4]
16 µg/mL: Staphylococcus aureus [15] | Staphylococcus aureus [16] | Staphylococcus aureus [29]
≤ 0.25 µg/mL: Streptococcus pneumoniae [14] | Staphylococcus capitis | Streptococcus pneumoniae [25] | Moraxella catarrhalis; Moraxella catarrhalis, read-out: MIC | Enterococcus faecalis [31] | Streptococcus pneumoniae [33] | Enterococcus faecium [40] | Enterococcus faecium [42]; Enterococcus faecium, read-out: MIC
0.25 µg/mL: Streptococcus pneumoniae [1] | Streptococcus pneumoniae [17] | Streptococcus pneumoniae [23] | Streptococcus pneumoniae [38]
4 µg/mL: Enterococcus faecium [3] | Enterococcus faecium [5] | Enterococcus faecium [11] | Enterococcus faecalis [12] | Enterococcus faecium [24] | Staphylococcus aureus [26] | Enterococcus faecalis [34] | Enterococcus faecium [36]
2 µg/mL: Staphylococcus aureus [6] | Legionella pneumophila | Enterococcus faecalis [19] | Enterococcus faecium [30] | [32] | Enterococcus faecium [37] | Staphylococcus aureus [39]
1 µg/mL: Chlamydia pneumoniae | Enterococcus faecalis [8] | Enterococcus faecalis [10] | Legionella pneumophila; Legionella pneumophila, read-out: MIC | Haemophilus influenzae [13] | Staphylococcus aureus [18] | Staphylococcus aureus [21] | Staphylococcus aureus [35] | Chlamydia trachomatis | Staphylococcus aureus [41]
8 µg/mL: Staphylococcus hominis
0.125 µg/mL: Streptococcus pneumoniae [17]; [45] | Streptococcus pneumoniae [38]; [45]
0.5 µg/mL: Enterococcus faecalis [2] | Enterococcus faecium [7] | Enterococcus faecium [20] | Streptococcus pneumoniae [22] | Moraxella catarrhalis | Enterococcus faecium [28] | Chlamydia trachomatis; Chlamydia trachomatis, read-out: MIC | Enterococcus faecium [42] | Haemophilus influenzae [43]
32 µg/mL: Staphylococcus aureus [9] | Staphylococcus aureus [27]

C[C@H]1COc2c(N3CCN(C)CC3)c(F)cc3c(=O)c(C(=O)O)cn1c23.C[C@H]1COc2c(N3CCN(C)CC3)c(F)cc3c(=O)c(C(=O)O)cn1c23.O [LEVOFLOXACIN]
0.016 µg/mL: Haemophilus influenzae [44]
0.008 µg/mL: Haemophilus influenzae [44]; Haemophilus influenzae, read-out: MIC

Source: ChEMBL document CHEMBL1255340, “In vitro activities of the Rx-01 oxazolidinones against hospital and community pathogens” (2008)
